For orientation: EC50 means the concentration that produces a half-maximal response.

Numbering of substitutions follows the chain as printed.

One assay concerns the target T1, TP F107A mutant (Homo sapiens, UniProt P21731, F107A).
T1 construct: expressed in transfected cells; HEK293T (calcium assays)
T1 sequence (P21731 1-343 F107A): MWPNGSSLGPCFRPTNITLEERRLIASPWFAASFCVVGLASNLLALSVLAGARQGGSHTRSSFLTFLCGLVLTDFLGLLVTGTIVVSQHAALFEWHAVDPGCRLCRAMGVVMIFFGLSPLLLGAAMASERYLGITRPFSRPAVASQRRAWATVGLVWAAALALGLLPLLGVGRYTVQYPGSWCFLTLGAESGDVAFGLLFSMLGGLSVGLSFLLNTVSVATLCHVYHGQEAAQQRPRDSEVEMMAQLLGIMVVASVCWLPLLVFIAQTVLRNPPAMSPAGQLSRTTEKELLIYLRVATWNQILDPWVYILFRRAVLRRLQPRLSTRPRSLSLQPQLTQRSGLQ
Put plainly: Intracellular calcium mobilization (Fluo-4NW) in transfected HEK293T cells. The class given is cell-based. The following applies: read-out: EC50 of agonist U46619 (calcium mobilized), transiently transfected HEK293T cells, mean ± S.E. On the procedure: (§1) Amino acid substitutions were introduced into the synthetic TPα gene carried by the expression vector pMT4 as described previously, [29]. DNA sequences of all the mutated genes were verified by automated DNA sequencing. To minimize variations in transfection efficiency, the total amount transfected DNA was kept constant in all cases at 1 µg of DNA per 7×10^5 cells. The wild type TP or mutant genes were expressed in COS-1 cells using a DEAE-dextran based transient transfection method, [29], and in HEK293T cells using lipofectamine 2000 (Invitrogen). Except unless specified, the membranes prepared from COS-1 cells were used for radioligand binding assays and immunoblots. For intracellular calcium determination assays and immunofluorescence imaging, HEK293T cells were used. For transient transfections of HEK293T cells using the plasmid pMT4, lipofectamine 2000 (Invitrogen) mediated transfection was used as described by the manufacturer. Membranes were prepared using Buffers A and B and as described previously, [29]. The protein concentration in the resuspended membrane pellet was determined using a modified DC protein assay kit from Bio-Rad Laboratories (Hercules, CA).
(§2) Changes in intracellular calcium were measured by using the fluorescent calcium sensitive dye Fluo-4NW (Invitrogen). After 6–8 hours of transient transfection of HEK293T cells using lipofectamine 2000, 100,000 viable cells were plated into each well of a 96-well tissue culture treated BD-falcon optilux plates. Cells mock transfected with vector pMT4 alone were used as a negative control. Following 24 hours of incubation at 37°C, the media was removed and cells were incubated with the dye Fluo-4NW (Invitrogen) containing 77 µg/ml of probenecid for 1 hour, as recommended by the manufacturer. […] Dose–response curves were generated and EC50 values calculated by nonlinear regression analysis using PRISM software version 5.0 (GraphPad Software Inc, San Diego, CA) after subtracting the responses of mock-transfected cells stimulated with same concentrations of agonists.
A general note: Calcium flux is commonly read through the fluorescence of an indicator in the cells.

The target of assay [1] is T2, TP G164V/V110A double mutant (Homo sapiens, UniProt P21731, G164V/V110A).
T2 construct: expressed in transfected cells; transient, pMT4
T2 sequence (P21731 1-343 V110A/G164V): T1 sequence (P21731 1-343 F107A) with A107F, V110A, G164V
Described as above. The class given is cell-based. To be noted: response could be restored upon stimulation with elevated levels of U46619. On the procedure: as §1, §2

`CCCCC[C@H](O)/C=C/[C@@H]1[C@@H](C/C=C\CCCC(=O)O)[C@H]2CO[C@@H]1C2` [U46619]: on TP F107A mutant, the EC50 amounted to 2.5 ± 0.7 nM. The “Calcium response to U46619” value in assay [1] is recorded as “reduced calcium response”.

The values are drawn from publication PMC3260207, “Site-Directed Mutations and the Polymorphic Variant Ala160Thr in the Human Thromboxane Receptor Uncover a Structural Role for Transmembrane Helix 4” (PLoS ONE, 2012).
